According to ChEMBL document CHEMBL1156543, “Identification of N-(4-piperidinyl)-4-(2,6-dichlorobenzoylamino)-1H-pyrazole-3-carboxamide (AT7519), a novel cyclin dependent kinase inhibitor using fragment-based X-ray crystallography and structure based drug design” (J Med Chem, 2008):

Columns and labels:
[1] = target: Cyclin-dependent kinase 2 (Homo sapiens, UniProt P24941)
Description: Inhibition of CDK2/Cyclin A by radiometric assay

in vivo = settings: BALB/c, mouse, plasma, iv, 0.2 mg/kg
[2] = target: Cyclin-dependent kinase 1/cyclin B1 (Homo sapiens, UniProt P06493)
Sequence of Cyclin-dependent kinase 1/cyclin B1 (P06493 whole entry): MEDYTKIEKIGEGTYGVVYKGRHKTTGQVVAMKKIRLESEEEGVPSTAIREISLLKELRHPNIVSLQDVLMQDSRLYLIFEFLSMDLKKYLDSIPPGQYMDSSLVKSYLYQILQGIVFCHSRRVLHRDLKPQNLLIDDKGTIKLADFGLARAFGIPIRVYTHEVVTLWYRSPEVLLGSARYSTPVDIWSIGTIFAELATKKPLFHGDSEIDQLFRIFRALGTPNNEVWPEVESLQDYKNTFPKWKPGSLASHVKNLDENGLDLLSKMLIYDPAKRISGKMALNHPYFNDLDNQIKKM
Sequence of Cyclin-dependent kinase 1/cyclin B1 (P14635 whole entry, further chain): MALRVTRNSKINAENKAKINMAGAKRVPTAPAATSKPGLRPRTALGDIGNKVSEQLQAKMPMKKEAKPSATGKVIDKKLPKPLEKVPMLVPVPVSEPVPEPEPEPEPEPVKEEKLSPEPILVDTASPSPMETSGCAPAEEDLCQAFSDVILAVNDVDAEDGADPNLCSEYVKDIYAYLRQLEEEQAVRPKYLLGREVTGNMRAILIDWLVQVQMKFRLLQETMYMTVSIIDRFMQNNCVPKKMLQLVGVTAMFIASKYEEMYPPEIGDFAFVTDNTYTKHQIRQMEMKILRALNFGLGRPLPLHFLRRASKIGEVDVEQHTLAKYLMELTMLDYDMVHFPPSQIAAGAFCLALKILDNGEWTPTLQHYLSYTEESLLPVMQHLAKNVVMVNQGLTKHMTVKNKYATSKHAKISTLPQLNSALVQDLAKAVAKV
Description: Inhibition of CDK1/Cyclin B by radiometric assay

HCT-116 [3] = assay: Antitumor activity against human HCT116 cells xenografted into SCID mouse at […], ip bid for 10 days; type: functional; settings: HCT-116, ip, 240 h, dose 4.6 mg/kg, route intraperitoneal
HCT-116 [4] = assay: Antitumor activity against human HCT116 cells xenografted into SCID mouse at 9.1 mg/kg, ip bid for 10 days; type: functional; settings: HCT-116, ip, 240 h, route intraperitoneal
HCT-116 [5] = assay: Antitumor activity against human HCT116 cells xenografted into SCID mouse at 18.2 mg/kg, ip bid for 10 days; type: functional; settings: HCT-116, ip, 240 h, route intraperitoneal
in vitro = settings: mouse, plasma
Description: Protein binding in mouse plasma at 1 ug/ml after 30 mins

Mus musculus = species on record: Mus musculus; settings: in vivo, ip, 10 mg/kg
HCT-116 [6] = settings: dose 9.1 mg/kg; route intraperitoneal
Description: Antitumor activity against human HCT116 cells xenografted into SCID mouse at 9.1 mg/kg, ip bid administered QDx10 schedule relative to control

HCT-116 [7] = assay: Antitumor activity against human HCT116 cells xenografted into BALB/c mouse at 10 mg/kg, ip bid administered QDx9 schedule relative to control; type: functional; settings: route intraperitoneal

IC50 [1] [nM] | clearance (in vivo) [mL/min/kg] | IC50 [2] [nM] | Structure (SMILES) | also measured
730 |  |  | O=C(CO)Nc1c[nH]nc1C(=O)Nc1ccc(F)cc1 | 
750 | 71 |  | O=C(NC1CCNCC1)c1n[nH]cc1NC(=O)c1c(F)cc(F)cc1F | 
7000 |  |  | Clc1cncc(Nc2ccccc2)n1 | 
 | 65 | 55 | O=C(NC1CCCCC1)c1n[nH]cc1NC(=O)c1c(F)cccc1F | 
19 | 42 | 45 | O=C(N[C@H]1CC[C@H](O)CC1)c1n[nH]cc1NC(=O)c1c(F)cccc1F | 
 |  |  | O=C(NC1CCNCC1)c1n[nH]cc1NC(=O)c1c(F)cccc1F [listing 1 of 2 here] | inhibition in vivo at […] (HCT-116 [3]): 22%; inhibition in vivo at 9.1 mg/kg (HCT-116 [4]): 46%; inhibition in vivo at 18.2 mg/kg (HCT-116 [5]): 86%
 | 43 |  | O=C(NC1CCNCC1)c1n[nH]cc1NC(=O)c1c(F)cccc1F [listing 2 of 2 here] | fraction unbound at 0.5 h, 1 ug/ml (in vitro): 0.16; AUC (Mus musculus): 3422 ng·h/g; T/C (HCT-116 [6]): 54%
350 | 38 |  | COc1cccc(F)c1C(=O)Nc1c[nH]nc1C(=O)NC1CCNCC1 | fraction unbound at 0.5 h, 1 ug/ml (in vitro): 0.25; T/C (HCT-116 [7]): 62%; AUC (Mus musculus): 3325 ng·h/g
110 | 56 |  | O=C(NC1CCNCC1)c1n[nH]cc1NC(=O)c1c(F)cccc1Cl | 
44 | 48 | 38 | Cl.O=C(N[C@H]1CCCNC1)c1n[nH]cc1NC(=O)c1c(F)cccc1F | 
85000 |  |  | Nc1c[nH]nc1C(=O)Nc1ccc(F)cc1 | 
38 | 63 | 440 | N[C@H]1CC[C@H](NC(=O)c2n[nH]cc2NC(=O)c2c(F)cccc2F)CC1 | 
3000 |  |  | O=C(Nc1ccccc1)c1n[nH]c2ccccc12 | 
 | 66 |  | O=C(NCC1CC1)c1n[nH]cc1NC(=O)c1c(F)cccc1F | 

Structure (SMILES) | IC50 [1] [nM] | clearance (in vivo) [mL/min/kg] | IC50 [2] [nM] | also measured
c1ccc2[nH]c(-c3cc[nH]n3)nc2c1 | 25000 |  |  | 
O=C(Nc1ccc(F)cc1)c1n[nH]cc1NC(=O)c1c(F)cccc1F |  | 40 | 10 | 
